Assay results published in ChEMBL document CHEMBL4665677, “Recent Advances of SHP2 Inhibitors in Cancer Therapy: Current Development and Clinical Application” (J Med Chem, 2020).

Legend:
[1] = biological target: T1, Tyrosine-protein phosphatase non-receptor type 11 (Homo sapiens, UniProt Q06124); test: Allosteric inhibition of dPEG8 peptide-activated SHP2 (unknown origin) using DiFMUP as substrate preincubated for 30 followed by substrate addition and measured after 30 mins by fluorescence method
T1 sequence (Q06124 whole entry): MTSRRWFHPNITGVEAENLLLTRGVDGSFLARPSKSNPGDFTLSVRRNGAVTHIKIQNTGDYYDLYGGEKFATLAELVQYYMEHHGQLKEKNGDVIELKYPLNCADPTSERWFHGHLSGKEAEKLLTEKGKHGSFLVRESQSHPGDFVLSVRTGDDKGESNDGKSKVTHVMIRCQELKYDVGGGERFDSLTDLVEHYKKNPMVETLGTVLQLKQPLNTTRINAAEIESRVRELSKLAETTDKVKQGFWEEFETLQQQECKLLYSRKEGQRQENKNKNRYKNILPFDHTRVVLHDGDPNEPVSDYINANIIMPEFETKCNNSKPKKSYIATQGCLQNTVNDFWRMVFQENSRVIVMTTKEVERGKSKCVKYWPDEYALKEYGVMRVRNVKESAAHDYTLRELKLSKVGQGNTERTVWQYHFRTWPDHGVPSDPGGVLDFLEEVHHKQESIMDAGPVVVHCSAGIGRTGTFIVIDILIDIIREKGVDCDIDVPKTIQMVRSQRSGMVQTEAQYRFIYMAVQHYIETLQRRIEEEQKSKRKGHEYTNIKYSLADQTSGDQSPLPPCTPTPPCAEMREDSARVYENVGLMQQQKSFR

[2] = biological target: T2, Tyrosine-protein phosphatase non-receptor type 11 (Homo sapiens) (UniProt Q06124); test: Allosteric inhibition of dPEG8 peptide-activated SHP2 (unknown origin) using DiFMUP as substrate at 100 nM preincubated for 30 followed by substrate addition and measured after 30 mins by fluorescence method relative to control
T2 sequence (whole entry): T1 sequence (Q06124 whole entry)

[3] = biological target: T3, Tyrosine-protein phosphatase non-receptor type 1 (Homo sapiens, UniProt P18031); test: Inhibition of PTP1B (unknown origin) using 6,8-difluoro-4-methylum-belliferylphosphate as substrate preincubated for 1 hr followed by substrate by fluorescence method
T3 sequence (P18031 whole entry): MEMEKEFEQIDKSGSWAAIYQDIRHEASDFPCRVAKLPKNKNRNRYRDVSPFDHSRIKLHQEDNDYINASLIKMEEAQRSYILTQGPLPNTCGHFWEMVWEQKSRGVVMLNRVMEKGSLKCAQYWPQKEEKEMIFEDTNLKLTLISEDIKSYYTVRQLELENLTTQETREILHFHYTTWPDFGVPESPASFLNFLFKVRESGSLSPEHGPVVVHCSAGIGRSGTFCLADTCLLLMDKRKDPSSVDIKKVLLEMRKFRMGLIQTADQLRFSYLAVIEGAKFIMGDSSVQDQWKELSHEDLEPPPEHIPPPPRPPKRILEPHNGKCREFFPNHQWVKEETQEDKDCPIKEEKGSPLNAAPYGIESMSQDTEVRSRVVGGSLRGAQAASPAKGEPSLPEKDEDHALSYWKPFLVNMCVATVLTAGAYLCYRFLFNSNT

[4] = biological target: T1, Tyrosine-protein phosphatase non-receptor type 11; test: Inhibition of N-terminal His6-tagged TEV cleavage site-fused human SHP2 catalytic domain (248 to 527 residues) expressed in Escherichia coli Rosetta(DE3) using 6,8-difluoro-4-methylum-belliferylphosphate as substrate preincubated for 1 hr followed by substrate addition by fluorescence method
[5] = biological target: T4, Tyrosine-protein phosphatase non-receptor type 6 (Homo sapiens, UniProt P29350); test: Inhibition of SHP1 (unknown origin) using 6,8-difluoro-4-methylum-belliferylphosphate as substrate preincubated for 1 hr followed by substrate by fluorescence method
T4 sequence (P29350 whole entry, the tested form may be a part): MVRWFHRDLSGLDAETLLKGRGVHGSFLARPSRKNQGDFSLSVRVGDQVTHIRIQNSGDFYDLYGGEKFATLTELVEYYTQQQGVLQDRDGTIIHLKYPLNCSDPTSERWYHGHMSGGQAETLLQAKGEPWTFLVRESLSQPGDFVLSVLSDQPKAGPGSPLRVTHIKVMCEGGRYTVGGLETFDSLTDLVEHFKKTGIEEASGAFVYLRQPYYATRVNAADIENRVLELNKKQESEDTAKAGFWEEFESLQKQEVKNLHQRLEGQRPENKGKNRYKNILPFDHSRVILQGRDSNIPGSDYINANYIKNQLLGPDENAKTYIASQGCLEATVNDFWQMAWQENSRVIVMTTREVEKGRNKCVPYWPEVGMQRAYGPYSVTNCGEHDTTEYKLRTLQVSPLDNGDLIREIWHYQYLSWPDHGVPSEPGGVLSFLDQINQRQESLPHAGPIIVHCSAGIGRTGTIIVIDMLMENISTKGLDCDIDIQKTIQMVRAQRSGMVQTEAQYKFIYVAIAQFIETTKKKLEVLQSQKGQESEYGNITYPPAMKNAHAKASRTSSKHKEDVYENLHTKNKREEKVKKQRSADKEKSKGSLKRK

[6] = biological target: T1, Tyrosine-protein phosphatase non-receptor type 11; test: Allosteric inhibition of full-length His6-tagged human SHP2 (2 to 527 residues) expressed in Escherichia coli using DiFMUP as substrate in presence of activating peptide (LN(pY)IDLDLV(dPEG8)LST(pY)ASINFQK-amide) by fluorescence method
MeWo = test: Antitumor activity against human MeWo cells xenografted in NSG (NOD/scid/IL2Rgnull) mouse assessed as reduction in tumor volume at 15 mg/kg, ip administered once daily for 21 days; format: functional; parameters: scale not given: the % may be the effect or the level left; settings: time 21 day
[7] = biological target: T1, Tyrosine-protein phosphatase non-receptor type 11; test: Allosteric inhibition of full length N-terminal His6-tagged human SHP2 (2 to 593 residues) expressed in Escherichia coli using DiFMUP as substrate in presence of activating peptide preincubated for 60 mins followed by substrate addition amd measured after 30 mins by fluorescence method
[8] = biological target: T1, Tyrosine-protein phosphatase non-receptor type 11; test: Inhibition of SHP2 PTP domain (unknown origin)
[9] = biological target: T1, Tyrosine-protein phosphatase non-receptor type 11; test: Allosteric inhibition of IRS1_pY1172(dPEG8)pY1222 activated-human full length SHP2 (Met1 to Leu525 residues) expressed in Escherichia coli BL21 Star (DE3) cells using DiFMUP as substrate preincubated for 30 to 60 mins followed by substrate addition and measured after 30 mins by fluorescence method
[10] = biological target: T1, Tyrosine-protein phosphatase non-receptor type 11; test: Allosteric inhibition of SHP2 (unknown origin) using DiFMUP as substrate preincubated for 60 mins in presence of activating peptide IRS-1 followed by substrate addition and measured after 60 mins by fluorescence method
[11] = biological target: T1, Tyrosine-protein phosphatase non-receptor type 11; test: Allosteric inhibition of [IRSl_pY1172(dPEG8)pY1222] peptide-activated SHP2 (unknown origin) using DiFMUP as substrate preincubated for 30 to 60 mins followed by substrate addition and measured after 30 mins by fluorescence method
[12] = biological target: T4, Tyrosine-protein phosphatase non-receptor type 6; test: Inhibition of recombinant His6-fused SHP1 catalytic domain (unknown origin) using p-nitrophenyl phosphate as substrate by spectrophotometric analysis
[13] = Antitumor activity against human LXFA526L cells xenografted in NMRI nu/nu mouse assessed as induction of tumor regression at 46 mg/kg, ip administered once daily and measured on day 27 relative to control; format: functional; settings: time 27 day
[14] = biological target: T4, Tyrosine-protein phosphatase non-receptor type 6; test: Inhibition of His6-fused human full length SHP1 expressed in Escherichia coli cells using DiFMUP as substrate preincubated for 30 mins followed by substrate addition and by fluorescence method
[15] = biological target: T4, Tyrosine-protein phosphatase non-receptor type 6; test: Inhibition of His6-fused human SHP1 catalytic domain expressed in Escherichia coli cells using DiFMUP as substrate preincubated for 30 followed by substrate addition and by fluorescence method
[16] = biological target: T3, Tyrosine-protein phosphatase non-receptor type 1; test: Inhibition of His6-fused human PTP1B expressed in Escherichia coli cells using DiFMUP as substrate preincubated for 30 followed by substrate addition and by fluorescence method
[17] = biological target: T4, Tyrosine-protein phosphatase non-receptor type 6; test: Inhibition of N-terminal His6-tagged TEV cleavage site-fused human SHP1 (222 to 535 residues) expressed in Escherichia coli BL21(DE3)RILcodon+ or BL21(DE3)RPcodon+ using 4-nitrophenylphosphate as substrate
[18] = biological target: T3, Tyrosine-protein phosphatase non-receptor type 1; test: Inhibition of N-terminal His6-tagged TEV cleavage site-fused human PTP1B (2 to 297 residues) expressed in Escherichia coli BL21(DE3)RILcodon+ or BL21(DE3)RPcodon+ using 4-nitrophenylphosphate as substrate
[19] = biological target: Tyrosine-protein phosphatase non-receptor type 11 (Homo sapiens, UniProt Q06124, Q257L/T253M); test: Inhibition of SHP2 T253M/Q257L double mutant (unknown origin)
Tyrosine-protein phosphatase non-receptor type 11 (Homo sapiens, UniProt Q06124, Q257L/T253M), sequence (Q06124 2-593 T253M/Q257L limits assumed): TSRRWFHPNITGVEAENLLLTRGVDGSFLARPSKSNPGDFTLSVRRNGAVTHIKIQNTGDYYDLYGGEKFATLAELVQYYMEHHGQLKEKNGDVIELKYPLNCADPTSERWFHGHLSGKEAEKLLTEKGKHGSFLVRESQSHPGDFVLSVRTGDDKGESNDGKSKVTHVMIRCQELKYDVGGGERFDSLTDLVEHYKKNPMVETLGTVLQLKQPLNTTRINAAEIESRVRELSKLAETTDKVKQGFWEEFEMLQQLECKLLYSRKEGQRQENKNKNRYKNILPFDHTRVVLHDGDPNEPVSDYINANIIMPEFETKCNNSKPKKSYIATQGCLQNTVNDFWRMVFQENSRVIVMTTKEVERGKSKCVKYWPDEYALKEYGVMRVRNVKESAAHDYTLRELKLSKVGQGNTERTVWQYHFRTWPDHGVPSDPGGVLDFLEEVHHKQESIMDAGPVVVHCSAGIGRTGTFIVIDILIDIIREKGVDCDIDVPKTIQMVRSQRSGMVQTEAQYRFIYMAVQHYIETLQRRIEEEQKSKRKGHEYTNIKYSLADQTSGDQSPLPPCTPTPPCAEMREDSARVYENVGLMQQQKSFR

Nc1nc(N2CCC3(CC2)Cc2ccncc2[C@H]3N)cnc1Sc1ccnc(N)c1Cl
IC50 [1]: 7 nM

Nc1nc(N2CCC3(CC2)c2ncccc2C[C@H]3N)cnc1Sc1ccnc(N)c1Cl
inhibition [2]: 20%

O=C1/C(=N\Nc2ccc(S(=O)(=O)O)cc2)C(c2ccc([N+](=O)[O-])cc2)=NN1c1ccc(C(F)(F)F)cc1
IC50 [3]: 10600 nM | IC50 [4]: 940 nM | IC50 [5]: 14400 nM

C[C@@H]1OCC2(CCC(c3cnc4nc(Sc5ccnc(N6CCCC6)c5Cl)ccc4n3)CC2)[C@@H]1N (some centres undefined)
IC50 [6]: 100 nM

O=C(Nc1ccc(-c2cc[nH]c2)cc1)C(=O)Nc1cccc(-c2[nH]c3cc(O)c(C(=O)O)cc3c2I)c1
Activity (MeWo): 52%

Nc1nc(N2CCC3(CC2)Cc2ncccc2[C@H]3N)cnc1Sc1ccnc(N)c1Cl
inhibition [2]: 30%

COc1ccc(N2N=C(c3ccc([N+](=O)[O-])cc3)/C(=N/Nc3ccc(S(=O)(=O)O)cc3)C2=O)cc1
IC50 [3]: 6800 nM | IC50 [4]: 500 nM | IC50 [5]: 2140 nM

Nc1nc(N2CCC3(CC2)Cc2cnccc2[C@H]3N)cnc1Sc1ccnc(N)c1Cl
IC50 [1]: 3 nM

CC1(N)CCN(c2cnc3c(-c4cccc(Cl)c4Cl)n[nH]c3c2)CC1
IC50 [7]: 17.9 nM

Nc1nc(N2CCC3(CC2)Cc2ncsc2[C@H]3N)cnc1Sc1ccnc(N)c1Cl
inhibition ([2]; filed as negative allosteric modulator): 49%

O=c1c2ccccc2n2c(-c3ccccc3O)nnc2n1Cc1ccccc1Cl
IC50 [8]: > 100000 nM | IC50 [9]: > 100000 nM

O=C(O)c1ccc(O)c(-c2nnc3n(Cc4ccccc4Cl)c(=O)c4ccccc4n23)c1
IC50 [8]: > 100000 nM

O=C1/C(=N\Nc2ccc(S(=O)(=O)O)cc2)C(c2ccc([N+](=O)[O-])cc2)=NN1c1ccc(Cl)cc1
IC50 [3]: 8930 nM | IC50 [4]: 1160 nM | IC50 [5]: 10200 nM

CC1(CN)CCN(c2ncc(Sc3cccc(Cl)c3Cl)[nH]c2=O)CC1
IC50 [10]: < 50 nM

Nc1nc(N2CCC3(CCC[C@H]3N)CC2)cnc1-c1cccc(Cl)c1Cl
IC50 [11]: 70 nM

NC(=O)[C@H](Cc1ccc(C(F)(F)P(=O)(O)O)cc1)NC(=O)[C@H](CC(=O)O)NC(=O)Cc1ccc(C(F)(F)P(=O)(O)O)cc1
IC50 [12]: 11000 nM

O=C1/C(=N\Nc2ccc(S(=O)(=O)O)cc2)C(c2ccc([N+](=O)[O-])cc2)=NN1c1ccc([N+](=O)[O-])cc1
IC50 [3]: 3170 nM | Activity [13]: 42.6% | IC50 [4]: 70 nM | IC50 [5]: 2080 nM

Cc1nc(N2CCC3(CC2)CO[C@@H](C)[C@H]3N)c(CO)nc1-c1cccc(Cl)c1Cl
IC50 [14]: > 10000 nM | IC50 [15]: > 10000 nM | IC50 [16]: > 10000 nM

CCOC(=O)c1ccc(N2N=C(c3ccc([N+](=O)[O-])cc3)/C(=N/Nc3ccc(S(=O)(=O)O)cc3)C2=O)cc1
IC50 [17]: 1800 nM | IC50 [18]: 2100 nM

CC1(N)CCN(c2nc3sc(-c4cccc(Cl)c4Cl)nn3c2CO)CC1
IC50 [7]: 22.3 nM

Cc1ccc(N2N=C(c3ccc([N+](=O)[O-])cc3)/C(=N/Nc3ccc(S(=O)(=O)O)cc3)C2=O)cc1
IC50 [3]: 6560 nM | IC50 [4]: 410 nM | IC50 [5]: 9830 nM

COc1cccc(-c2nnc3n(Cc4ccc(C(=O)N5CCC[C@H]5C(=O)O)cc4Cl)c(=O)c4ccccc4n23)c1O
IC50 [8]: > 100000 nM

COc1cccc(-c2nnc3n(Cc4ccccc4Cl)c(=O)c4ccccc4n23)c1O
IC50 [19]: 68000 nM | IC50 [8]: > 100000 nM
